Results on 27 molecules are retold here after US9290487B2, “Pharmaceutical composition for treating diabetes” (Ajinomoto Co., Inc., priority 2011, dated 2016).

In this experiment the target is human GYS1 (glycogen synthase) (Homo sapiens (Human), UniProt P13807). Put plainly: Measurement of glycogen synthase activity (coupled pyruvate kinase/lactate dehydrogenase assay, absorbance at 340 nm). The class given is biochemical. Conditions: concentration inducing relative activity of 50% (100% = Ex. 1 of WO/2011/058154 at 10 μM). The method, then:
A human GYS1 expression plasmid (pCDNA3.1(+)-hGYS1) was constructed by the following method. Using a human skeletal muscle cDNA of Human MTC Panel I (Takara Bio Inc., 636742) as a template, a human GYS1 gene was amplified by a PCR method using cloning primers (Forward Primer: ATGCCTTTAAACCGCAC (SEQ ID NO: 1), Reverse Primer: TTAGTTACGCTCCTCGC (SEQ ID NO: 2)). Using the amplified human GYS1 sequence as a template, a restriction enzyme sequence was added by a PCR method using sub-cloning primers (Forward Primer: […] (SEQ ID NO: 3), Reverse Primer: […] (SEQ ID NO: 4)). Then, the human GYS1 gene was introduced between a Xho I site and a Xba I site of pCDNA3.1(+) (Invitrogen Corporation, V790-20).
Glycogen synthase was prepared by the following method according to the published article (THE JOURNAL OF BIOLOGICAL CHEMISTRY Vol. 269, No. 41, 25534-25542, 1994). Human kidney-derived HEK293T cells were seeded in a dish (Thermo Fisher Scientific Inc., 168381) using a 10% FBS-containing DMEM (Nacalai Tesque, Inc., 0845874) medium, and cultured overnight. Then, using Lipofectamine LTX (Invitrogen Corporation, 15338-100), the human GYS1 expression vector was transfected according to the attached manual. After culturing under conditions of 37° C. and 5% CO2 for 2 days, the resultant was dissolved in a lysis buffer (50 mM Tris-HCl (pH 8.0), 10 mM EDTA, 2 mM EGTA, 100 mM NaF, 1 mM PMSF, 1 mM DTT, 1× Complete (Roche Diagnostics K. K., 1873580)), homogenized, and then centrifuged at 16000×g at 4° C. for 15 minutes. To the precipitated fraction, a lysis buffer was added. Re-dissolved fractions were used as glycogen synthase for evaluation.
The glycogen synthase activity was measured by the following method. To a polystyrene 96-well plate, a solution containing 30 mM glycylglycine (pH 7.3), 40 mM KCl, 20 mM MgCl2, 9.2% DMSO containing one of the test compounds at various concentrations, and 10 mM glucose-6-phosphate (Sigma-Aldrich Corporation, G7879) was added by 12 μL/well.
Next, a substrate solution containing 30 mM glycylglycine (pH 7.3), 4.3 mg/mL of glycogen (Sigma-Aldrich Corporation, G8876), 21.6 mM UDP-glucose (Sigma-Aldrich Corporation, U4625), 21.6 mM phosphoenolpyruvic acid (Sigma-Aldrich Corporation, P0564), and 4.05 mM NADH (Sigma-Aldrich Corporation, N8129) was added by 18 μL/well.
Further, an enzyme solution containing 50 mM Tris-HCl (pH 8.0), 27 mM DTT (Nacalai Tesque, Inc., 14128-04), 0.2 mg/mL of bovine serum albumin, 0.17 mg/mL of the glycogen synthase, 1.5 μL of a pyruvate kinase/lactate dehydrogenase solution (Sigma-Aldrich Corporation, P0294) was added by 18 μL/well to prepare a reaction solution. After the reaction solution was incubated (at 30° C. for 25 minutes for Examples 1 to 10, at 37° C. for 20 minutes for Examples 11 to 75), the absorbance at 340 nm was measured using Benchmark Plus (Bio-Rad Laboratories, Inc.).
The activities of the test compounds were calculated by the following method. The change in the absorbance (ΔA340) was calculated by subtracting the absorbance at 340 nm of the reaction solution containing the compound and DMSO from the absorbance at 340 nm of a reaction solution not containing the compound but containing only DMSO. The ΔA340 of the reaction solution containing the compound of Example 1 in WO/2011/058154 at the final concentration of 10 μM was taken as 100% to calculate the relative activity (%) of the test compounds at various concentrations. EC50 representing the concentration of the compound which induces an increase in the relative activity to 50% was calculated using XLfit (idbs).

[1] abbreviates: incubation at 30° C. for 25 minutes (Examples 1 to 10).
The mark [2] stands for this setting: incubation at 37° C. for 20 minutes (Examples 11 to 75).

Sequence of human GYS1 (glycogen synthase) (P13807 whole entry): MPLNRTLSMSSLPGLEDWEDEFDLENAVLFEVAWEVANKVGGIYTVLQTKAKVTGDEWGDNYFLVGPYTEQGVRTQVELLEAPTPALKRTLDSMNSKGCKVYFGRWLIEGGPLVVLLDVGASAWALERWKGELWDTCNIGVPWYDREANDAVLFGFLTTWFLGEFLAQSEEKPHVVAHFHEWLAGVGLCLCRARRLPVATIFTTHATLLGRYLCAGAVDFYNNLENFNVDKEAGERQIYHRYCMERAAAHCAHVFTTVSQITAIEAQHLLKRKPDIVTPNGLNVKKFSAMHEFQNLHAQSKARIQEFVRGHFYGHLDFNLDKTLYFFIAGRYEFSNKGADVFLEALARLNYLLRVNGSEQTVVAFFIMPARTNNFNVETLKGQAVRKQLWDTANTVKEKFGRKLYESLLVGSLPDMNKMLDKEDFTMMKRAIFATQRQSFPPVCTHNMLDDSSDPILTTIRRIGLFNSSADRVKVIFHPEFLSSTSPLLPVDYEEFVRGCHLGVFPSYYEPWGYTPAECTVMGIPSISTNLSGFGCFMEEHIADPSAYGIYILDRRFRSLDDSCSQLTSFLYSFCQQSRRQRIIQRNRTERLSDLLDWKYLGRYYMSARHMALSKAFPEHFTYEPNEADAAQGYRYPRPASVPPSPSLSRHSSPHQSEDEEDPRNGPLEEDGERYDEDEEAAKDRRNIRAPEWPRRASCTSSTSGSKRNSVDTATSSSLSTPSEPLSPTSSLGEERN

Under setting [1], `CN(CC(=O)O)C(=O)c1cccc(COc2ccc(-c3cc(F)cc4c3OCC4)cc2)c1` [compound of Ex. 2, N-(3-{[4-(5-fluoro-2,3-dihydro-1-benzofuran-7-yl)phenoxy]methyl}benzoyl)-N-methylglycine] showed an EC50 of 590 nM. That is a sub-micromolar value.
Under setting [1], `O=C(O)[C@@H]1CCCN1C(=O)c1cccc(COc2ccc(-c3ccc(F)c4ccoc34)cc2)c1` [compound of Ex. 3, 1-(3-{[4-(4-fluoro-1-benzofuran-7-yl)phenoxy]methyl}benzoyl)-L-proline] gave an EC50 of 110 nM.
Same read-out and setting: under `O=C(O)[C@@H]1CCCN1C(=O)c1cccc(COc2ccc(-c3ccc4occc4c3)cc2)c1` [compound of Ex. 6] stands 330 nM; under `Cc1cc2cccc(-c3ccc(OCc4cccc(C(=O)N5CCC[C@H]5C(=O)O)c4)cc3)c2o1` [compound of Ex. 8], 820 nM.
On the same count and under the same terms, the same measure for `O=C(O)[C@@H]1CCCN1C(=O)c1cccc(COc2ccc(-c3ccc(F)c4c3OCC4)cc2)c1` [compound of Ex. 10]: 350 nM.
For `O=C(O)[C@@H]1CCCN1C(=O)c1cccc(COc2ccc(-c3cc(F)cc4ccoc34)cc2)c1` [compound of Ex. 12, 1-(3-{[4-(5-fluoro-1-benzofuran-7-yl)phenoxy]methyl}benzoyl)-L-proline], the EC50 under setting [2] turned out to be 350 nM.
Take `O=C(O)[C@@H]1CCCN1C(=O)c1cccc(COc2ccc(-c3ccc(F)c4c3OCO4)cc2)c1` [compound of Ex. 13, 1-(3-{[4-(7-fluoro-1,3-benzodioxol-4-yl)phenoxy]methyl}benzoyl)-L-proline]: the EC50 under setting [2] amounted to 270 nM.
Still for that read-out and setting: the same measure for `O=C(O)[C@@H]1CCCN1C(=O)c1cccc(COc2ccc(-c3cc(F)c4occc4c3)cc2)c1` [compound of Ex. 14, 1-(3-{[4-(7-fluoro-1-benzofuran-5-yl)phenoxy]methyl}benzoyl)-L-proline]: 70 nM; for `O=C(O)[C@@H]1CCCN1C(=O)c1cccc(COc2ccc(-c3cc4ccoc4c(F)c3F)cc2)c1` [compound of Ex. 16, 1-(3-{[4-(6,7-difluoro-1-benzofuran-5-yl)phenoxy]methyl}benzoyl)-L-proline]: 35 nM.
Still for that read-out and setting: the same measure for `O=C(O)[C@@H]1CCCN1C(=O)c1cccc(COc2ccc(-c3cc(F)c4occc4c3F)cc2)c1` [compound of Ex. 17, 1-(3-{[4-(4,7-difluoro-1-benzofuran-5-yl)phenoxy]methyl}benzoyl)-L-proline]: 270 nM; for `O=C(O)[C@@H]1CCCN1C(=O)c1cccc(COc2ccc(-c3c(F)cc(F)c4ccoc34)cc2)c1` [compound of Ex. 20, 1-(3-{[4-(4,6-difluoro-1-benzofuran-7-yl)phenoxy]methyl}benzoyl)-L-proline]: 64 nM; for `Cc1coc2c(-c3ccc(OCc4cccc(C(=O)N5CCC[C@H]5C(=O)O)c4)cc3)cc(F)c(F)c12` [compound of Ex. 21, 1-(3-{[4-(4,5-difluoro-3-methyl-1-benzofuran-7-yl)phenoxy]methyl}benzoyl)-L-proline]: 54 nM.
The molecule `Cc1cc2c(F)c(F)cc(-c3ccc(OCc4cccc(C(=O)N5CCC[C@H]5C(=O)O)c4)cc3)c2o1` [compound of Ex. 23, 1-(3-{[4-(4,5-difluoro-2-methyl-1-benzofuran-7-yl)phenoxy]methyl}benzoyl)-L-proline] returned an EC50 under setting [2] of 110 nM.
Under setting [2], `O=C(O)[C@@H]1CCCN1C(=O)c1cccc(COc2ccc(-c3cccc4c3CCC4)cc2)c1` [compound of Ex. 24, 1-(3-{[4-(2,3-dihydro-1H-inden-4-yl)phenoxy]methyl}benzoyl)-L-proline] gave an EC50 of 670 nM.
Same read-out and setting: under `O=C(O)[C@@H]1CCCN1C(=O)c1cccc(COc2ccc(-c3ccc(F)c4occc34)cc2)c1` [compound of Ex. 25, 1-(3-{[4-(7-fluoro-1-benzofuran-4-yl)phenoxy]methyl}benzoyl)-L-proline] stands 400 nM.
Under setting [2], `O=C(O)[C@@H]1CCCN1C(=O)c1cccc(COc2ccc(-c3ccc(F)c4c3C=CCO4)cc2)c1` [compound of Ex. 27, 1-(3-{[4-(8-fluoro-2H-chromen-5-yl)phenoxy]methyl}benzoyl)-L-proline] returned an EC50 of 210 nM.
In turn, `O=C(O)[C@@H]1CCCN1C(=O)c1cccc(COc2ccc(-c3cccc4ccsc34)cc2)c1` [compound of Ex. 28, 1-(3-{[4-(1-benzothien-7-yl)phenoxy]methyl}benzoyl)-L-proline] returned an EC50 under setting [2] of 890 nM.
Still for that read-out and setting: the same measure for `O=C(O)[C@@H]1CCCN1C(=O)c1cccc(COc2ccc(-c3ccc(F)c4[nH]ccc34)cc2)c1` [compound of Ex. 29, 1-(3-{[4-(7-fluoro-1H-indol-4-yl)phenoxy]methyl}benzoyl)-L-proline]: 230 nM.
Same read-out and setting: the same measure for `O=C(O)[C@@H]1CCCN1C(=O)c1cccc(COc2ccc(-c3cc(F)c(F)c4occc34)cc2)c1` [compound of Ex. 30, 1-(3-{[4-(6,7-difluoro-1-benzofuran-4-yl)phenoxy]methyl}benzoyl)-L-proline]: 140 nM; for `O=C(O)[C@@H]1CCCN1C(=O)c1cccc(COc2ccc(-c3cc(F)c(F)c4c3C=CCO4)cc2)c1` [compound of Ex. 31, 1-(3-{[4-(7,8-difluoro-2H-chromen-5-yl)phenoxy]methyl}benzoyl)-L-proline]: 100 nM; for `O=C(O)[C@@H]1CCCN1C(=O)c1cccc(COc2ccc(-c3cc(F)c(F)c4[nH]ccc34)cc2)c1` [compound of Ex. 33, 1-(3-{[4-(6,7-difluoro-1H-indol-4-yl)phenoxy]methyl}benzoyl)-L-proline]: 34 nM.
In turn, `C#CCOc1cc(F)c(F)cc1-c1ccc(OCc2cccc(C(=O)N3CCC[C@H]3C(=O)O)c2)cc1` [compound of Ex. 34, 1-[3-({[4′,5′-difluoro-2′-(prop-2-yn-1-yloxy)biphenyl-4-yl]oxy}methyl)benzoyl]-L-proline] returned an EC50 under setting [2] of 17 nM.
The same measure, in the same setting: under `N#CCOc1cc(F)c(F)cc1-c1ccc(OCc2cccc(C(=O)N3CCC[C@H]3C(=O)O)c2)cc1` [compound of Ex. 35, 1-[3-({[2′-(cyanomethoxy)-4′,5′-difluorobiphenyl-4-yl]oxy}methyl)benzoyl]-L-proline] stands 15 nM; under `C=CCOc1cc(F)c(F)cc1-c1ccc(OCc2cccc(C(=O)N3CCC[C@H]3C(=O)O)c2)cc1` [compound of Ex. 36, 1-[3-({[2′-(allyloxy)-4′,5′-difluorobiphenyl-4-yl]oxy}methyl)benzoyl]-L-proline], 110 nM; under `[2H]C([2H])([2H])Oc1cc(F)c(F)cc1-c1ccc(OCc2cccc(C(=O)N3CCC[C@H]3C(=O)O)c2)cc1` [compound of Ex. 37, 1-(3-{[(4′,5′-difluoro-2′-d3 methoxybiphenyl-4-yl)oxy]methyl}benzoyl)-L-proline], 10 nM.
Same read-out and setting: under `CSc1cc(F)c(F)cc1-c1ccc(OCc2cccc(C(=O)N3CCC[C@H]3C(=O)O)c2)cc1` [compound of Ex. 38, 1-[3-({[4′,5′-difluoro-2′-(methylthio)biphenyl-4-yl]oxy}methyl)benzoyl]-L-proline] stands 29 nM; under `O=C(O)[C@@H]1CCCN1C(=O)c1cccc(COc2ccc(-c3cc(F)c(F)c4ccsc34)cc2)c1` [compound of Ex. 39, 1-(3-{[4-(4,5-difluoro-1-benzothien-7-yl)phenoxy]methyl}benzoyl)-L-proline], 42 nM.
